These are literature values, as cited in patent US20220354770A1, “METHOD FOR DYEING KERATINOUS MATERIAL BY MEANS OF A PREMIX OF AMINOSILICONE AND A CHROMOPHORIC COMPOUND” (Henkel AG & Co. KGaA, priority 2019, published 2022).

For this data set the following is noted: 25° C.

For `Nc1cc(S(=O)(=O)[O-])cc2cc(S(=O)(=O)[O-])c(N=Nc3ccccc3)c(O)c12.[Na+].[Na+]` [Acid Red 33, diantrium salt of 5-amino-4-hydroxy-3-(phenylazo)-naphthalene-2,7-disulphonate], the solubility in water is 2500 µg/mL. As to `O=S(=O)([O-])c1ccc(N=Nc2c(O)ccc3ccccc23)cc1.[Na+]` [Acid Orange 7, sodium salt of 4-[(2-hydroxy-1-naphthyl)azo]benzene sulphonate], the solubility in water entry was “more than 7 g/L”. For the compound `O=C([O-])c1c(Cl)c(Cl)c(Cl)c(Cl)c1-c1c2c(Br)cc(=O)c(Br)c-2oc2c(Br)c(O)cc(Br)c12.O=C([O-])c1c(Cl)c(Cl)c(Cl)c(Cl)c1-c1c2c(Br)cc(=O)c(Br)c-2oc2c(Br)c(O)cc(Br)c12.[Na+].[Na+]` [Acid Red 92, disodium salt of 3,4,5,6-tetrachloro-2-(1,4,5,8-tetrabromo-6-hydroxy-3-oxoxanthen-9-yl)benzoic acid], the solubility in water result is “greater than 10 g/L”. Consider `O=C([O-])C1=NN(c2ccc(S(=O)(=O)[O-])cc2)C(=O)C1N=Nc1ccc(S(=O)(=O)[O-])cc1.[Na+].[Na+].[Na+]` (stereo not shown) [Acid Yellow 23, trisodium salt of 4,5-dihydro-5-oxo-1-(4-sulfophenyl)-4-((4-sulfophenyl)azo)-1H-pyrazole-3-carboxylic acid], for which the “solubility in water” value is “highly soluble”.
